This is an account of results in US20170121344A1 (Siga Technologies, Inc., priority 2009, published 2017).

The first test deals with Dengue-2 (Strain New Guinea C). Nature of the test: Viral yield assay against Dengue-2 in Vero cells. It is filed as cell-based, Dengue virus. The conditions noted are these: Dengue virus, Vero, 48 h, read-out: Activity (EC50 class) against Dengue-2 Virus in Vero cells. The method, then:
Compounds that were active in the primary screen were tested for activity in viral yield assays. […] Vero cells in 12-well plates were infected with dengue-2 virus at a multiplicity of infection (MOI) of 0.1, treated with compound (or DMSO as a control), incubated at 37° C., harvested 48 hours post infection and titered on Vero cells as described above. The EC50 was calculated through ExcelFit. Activities against other serotypes of dengue virus were determined in a similar way.
With `Cc1csc(NC(=O)c2sc3nc(C)c4c(c3c2N)CCCC4)n1` [Compound 4, 1-Amino-5-methyl-6,7,8,9-tetrahydro-thieno[2,3-c]isoquinoline-2-carboxylic acid (4-methyl-thiazol-2-yl)-amide], the EC50 was less than 5 µM. The same measure, in the same setting: in the case of `Cc1cc(C)c2c(N)c(C(=O)Nc3cccc(C(F)(F)F)c3)sc2n1` [Compound 9, 3-Amino-4,6-dimethyl-thieno[2,3-b]pyridine-2-carboxylic acid (3-trifluoromethyl-phenyl)-amide] it was less than 5 µM; in that of `Nc1c(C(=O)Nc2nccs2)sc2nc3c(c(-c4ccccc4Cl)c12)CCCC3` [Compound 10, 3-Amino-4-(2-chloro-phenyl)-5,6,7,8-tetrahydro-thieno[2,3-b]quinoline-2-carboxylic acid thiazol-2-ylamide], less than 5 µM. The same measure, in the same setting: in the case of `Nc1c(C(=O)Nc2cccc(C(F)(F)F)c2)sc2nc3c(cc12)C(=O)CCC3` [Compound 12, 3-Amino-5-oxo-5,6,7,8-tetrahydro-thieno[2,3-b]quinoline-2-carboxylic acid (3-trifluoromethyl-phenyl)-amide] it was less than 5 µM.

`CN1CCc2nc3sc(C(=O)Nc4ccc(Cl)cc4)c(N)c3cc2C1` [Compound 13, 3-Amino-6-methyl-5,6,7,8-tetrahydro-thieno[2,3-b][1,6]naphthyridine-2-carboxylic acid (4-chloro-phenyl)-amide]: the EC50 was less than 5 µM.

Consider `CCN1CCc2nc3sc(C(=O)N4CCc5ccccc5C4)c(N)c3cc2C1` [Compound 22, (3-Amino-6-ethyl-5,6,7,8-tetrahydro-thieno[2,3-b][1,6]naphthyridin-2-yl)-(3,4-dihydro-1H-isoquinolin-2-yl)-methanone], for which the EC50 is less than 5 µM.

`CC(C)N1CCc2nc3sc(C(=O)NCc4ccc5c(c4)OCO5)c(N)c3cc2C1` [Compound 26, 3-Amino-6-isopropyl-5,6,7,8-tetrahydro-thieno[2,3-b][1,6]naphthyridine-2-carboxylic acid (benzo[1,3]dioxol-5-ylmethyl)-amide]: the EC50 was less than 5 µM.

The same test, now with this note: Dengue virus; Vero cells, MOI 0.1, harvested 48 hours post infection; read-out: Activity (EC50 class) against Dengue-2 Virus in Vero cells.
As to `NC(=O)c1sc2nc(-c3cccs3)cc(-c3ccc(F)cc3)c2c1N` [Compound 2, 3-Amino-4-(4-fluoro-phenyl)-6-thiophen-2-yl-thieno[2,3-b]pyridine-2-carboxylic acid amide], the EC50 is less than 5 µM. `Nc1c(C(=O)Nc2cccc(C(F)(F)F)c2)sc2nc(-c3cccs3)ccc12` [Compound 3, 3-Amino-6-thiophen-2-yl-thieno[2,3-b]pyridine-2-carboxylic acid (3-trifluoromethyl-phenyl)-amide]: the EC50 is less than 5 µM. `Nc1c(C(=O)Nc2nnc(-c3ccccc3)s2)sc2nc(-c3cccs3)cc(C(F)(F)F)c12` [Compound 5, 3-Amino-6-thiophen-2-yl-4-trifluoromethyl-thieno[2,3-b]pyridine-2-carboxylic acid (5-phenyl-[1,3,4]thiadiazol-2-yl)-amide]: the EC50 was less than 5 µM. With `N#Cc1c(N)nc2sc(C(=O)Nc3ccc(Br)cc3)c(N)c2c1-c1ccco1` [Compound 6, 3,6-Diamino-5-cyano-4-furan-2-yl-thieno[2,3-b]pyridine-2-carboxylic acid (4-bromo-phenyl)-amide], the EC50 is less than 5 µM. The same measure, in the same setting: in the case of `COc1ccc(-c2cc(C3CC3)nc3sc(C(N)=O)c(N)c23)cc1` [Compound 7, 3-Amino-6-cyclopropyl-4-(4-methoxy-phenyl)-thieno[2,3-b]pyridine-2-carboxylic acid amide] it was less than 5 µM; in that of `NC(=O)c1sc2nc(C3CC3)cc(-c3ccccc3)c2c1N` [Compound 8, 3-Amino-6-cyclopropyl-4-phenyl-thieno[2,3-b]pyridine-2-carboxylic acid amide], less than 5 µM; in that of `NC(=O)c1sc2nc3c(c(-c4ccco4)c2c1N)CCCC3` [Compound 11, 3-Amino-4-furan-2-yl-5,6,7,8-tetrahydro-thieno[2,3-b]quinoline-2-carboxylic acid amide], less than 5 µM. `CN1CCc2nc3sc(C(=O)NCc4ccc(F)cc4)c(N)c3cc2C1` [Compound 14, 3-Amino-6-methyl-5,6,7,8-tetrahydro-thieno[2,3-b][1,6]naphthyridine-2-carboxylic acid 4-fluoro-benzylamide]: the EC50 was less than 5 µM. Same read-out and setting: in the case of `CCN(CC)C(=O)c1sc2nc3c(cc2c1N)CN(C)CC3` [Compound 15, 3-Amino-6-methyl-5,6,7,8-tetrahydro-thieno[2,3-b][1,6]naphthyridine-2-carboxylic acid diethylamide] it was less than 5 µM. Regarding `CN1CCc2nc3sc(C(=O)Nc4ccc(F)c(F)c4)c(N)c3cc2C1` [Compound 16, 3-Amino-6-methyl-5,6,7,8-tetrahydro-thieno[2,3-b][1,6]naphthyridine-2-carboxylic acid (3,4-difluoro-phenyl)-amide], the EC50 was less than 5 µM. Still for that read-out and setting: in the case of `Cc1ccc(NC(=O)c2sc3nc4c(cc3c2N)CN(C)CC4)c(C)c1` [Compound 17, 3-Amino-6-methyl-5,6,7,8-tetrahydro-thieno[2,3-b][1,6]naphthyridine-2-carboxylic acid (2,4-dimethyl-phenyl)-amide] it was less than 5 µM; in that of `CN1CCc2nc3sc(C(=O)Nc4cccc(Cl)c4)c(N)c3cc2C1` [Compound 18, 3-Amino-6-methyl-5,6,7,8-tetrahydro-thieno[2,3-b][1,6]naphthyridine-2-carboxylic acid (3-chloro-phenyl)-amide], less than 5 µM. On the same count and under the same terms, in the case of `CN1CCc2nc3sc(C(=O)Nc4ccccc4Cl)c(N)c3cc2C1` [Compound 19, 3-Amino-6-methyl-5,6,7,8-tetrahydro-thieno[2,3-b][1,6]naphthyridine-2-carboxylic acid (2-chloro-phenyl)-amide] it was less than 5 µM; in that of `CN1CCc2nc3sc(C(=O)Nc4ccc(N(C)C)cc4)c(N)c3cc2C1` [Compound 20, 3-Amino-6-methyl-5,6,7,8-tetrahydro-thieno[2,3-b][1,6]naphthyridine-2-carboxylic acid (4-dimethylamino-phenyl)-amide], less than 5 µM; in that of `CCN1CCc2nc3sc(C(=O)Nc4ccc(C(F)(F)F)cc4)c(N)c3cc2C1` [Compound 21, 3-Amino-6-ethyl-5,6,7,8-tetrahydro-thieno[2,3-b][1,6]naphthyridine-2-carboxylic acid (4-trifluoromethyl-phenyl)-amide], less than 5 µM. In the case of `COc1ccc(NC(=O)c2sc3nc4c(cc3c2N)CN(C(C)C)CC4)cc1` [Compound 23, 3-Amino-6-isopropyl-5,6,7,8-tetrahydro-thieno[2,3-b][1,6]naphthyridine-2-carboxylic acid (4-methoxy-phenyl)-amide], the EC50 is less than 5 µM.

In the case of `CC(C)N1CCc2nc3sc(C(=O)Nc4cccc(F)c4)c(N)c3cc2C1` [Compound 24, 3-Amino-6-isopropyl-5,6,7,8-tetrahydro-thieno[2,3-b][1,6]naphthyridine-2-carboxylic acid (3-fluoro-phenyl)-amide], the EC50 was less than 5 µM. Same read-out and setting: with `CCOC(=O)c1ccc(NC(=O)c2sc3nc4c(cc3c2N)CN(C(C)C)CC4)cc1` [Compound 25, 4-[(3-Amino-6-isopropyl-5,6,7,8-tetrahydro-thieno[2,3-b][1,6]naphthyridine-2-carbonyl)-amino]-benzoic acid ethyl ester] the figure was less than 5 µM.

Turning to `Cc1ccccc1NC(=O)c1sc2nc3c(c(-c4cccs4)c2c1N)CN(C)CC3` [Compound 27, 3-Amino-6-methyl-4-thiophen-2-yl-5,6,7,8-tetrahydro-thieno[2,3-b][1,6]naphthyridine-2-carboxylic acid o-tolylamide], the EC50 was less than 5 µM. For the compound `COc1ccc(NC(=O)c2sc3nc4c(c(-c5cccs5)c3c2N)CN(C)CC4)cc1` [Compound 28, 3-Amino-6-methyl-4-thiophen-2-yl-5,6,7,8-tetrahydro-thieno[2,3-b][1,6]naphthyridine-2-carboxylic acid (4-methoxy-phenyl)-amide], the EC50 was less than 5 µM. As for `CN1CCc2nc3sc(C(=O)Nc4ccc(F)cc4)c(N)c3cc2C1` [Compound 29, 3-Amino-6-methyl-5,6,7,8-tetrahydro-thieno[2,3-b][1,6]naphthyridine-2-carboxylic acid (4-fluoro-phenyl)-amide], the EC50 is less than 5 µM. On the same count and under the same terms, in the case of `CN1CCc2nc3sc(C(=O)Nc4ccc(OC(F)(F)F)cc4)c(N)c3cc2C1` [Compound 30, 3-Amino-6-methyl-5,6,7,8-tetrahydro-thieno[2,3-b][1,6]naphthyridine-2-carboxylic acid (4-trifluoromethoxy-phenyl)-amide] it was less than 5 µM; in that of `COc1ccc(Cl)cc1NC(=O)c1sc2nc3c(cc2c1N)CN(Cc1ccccc1)CC3` [Compound 31, 3-Amino-6-benzyl-5,6,7,8-tetrahydro-thieno[2,3-b][1,6]naphthyridine-2-carboxylic acid (5-chloro-2-methoxy-phenyl)-amide], less than 5 µM; in that of `CN1CCc2nc3sc(C(=O)NCCc4c[nH]c5ccccc45)c(N)c3cc2C1` [Compound 32, 3-Amino-6-methyl-5,6,7,8-tetrahydro-thieno[2,3-b][1,6]naphthyridine-2-carboxylic acid [2-(1H-indol-3-yl)-ethyl]-amide], less than 5 µM. Same read-out and setting: in the case of `CN1CCc2nc3sc(C(=O)Nc4ccc5c(c4)OCO5)c(N)c3cc2C1` [Compound 33, 3-Amino-6-methyl-5,6,7,8-tetrahydro-thieno[2,3-b][1,6]naphthyridine-2-carboxylic acid benzo[1,3]dioxol-5-ylamide] it was less than 5 µM; in that of `CN1CCc2nc3sc(C(=O)Nc4ccccc4)c(N)c3c(-c3cccs3)c2C1` [Compound 34, 3-Amino-6-methyl-4-thiophen-2-yl-5,6,7,8-tetrahydro-thieno[2,3-b][1,6]naphthyridine-2-carboxylic acid phenylamide], less than 5 µM.
